In US20200404919A1, “USE OF HETEROARYL-TRIAZOLE AND HETEROARYL-TETRAZOLE COMPOUNDS AS PESTICIDES IN PLANT PROTECTION” (Bayer Aktiengesellschaft, priority 2018, published 2020):

How the values were obtained:
Format in all cases: in vivo
Spodoptera frugiperda = Spodoptera frugiperda - spray test; conditions: in Zea mays, 168 h, read-out: mortality in %
Procedure: Spodoptera frugiperda—Spray Test
(§1) To produce a suitable preparation of active compound, 1 part by weight of active compound is mixed with the stated amount of solvents and is diluted with water, containing an emulsifier concentration of 1000 ppm, to the desired concentration. Further test concentrations are prepared by dilution with emulsifier containing water.
Maize (Zea mays) leaf sections are sprayed with a preparation of the active ingredient of the desired concentration. Once dry, the leaf sections are infested with fall armyworm larvae (Spodoptera frugiperda).
After 7 days mortality in % is determined. 100% means all caterpillars have been killed and 0% means none of the caterpillars have been killed.

Phaedon cochleariae = Phaedon cochleariae - spray test; conditions: in Brassica rapa, foliar, 168 h, read-out: mortality in %
Procedure: Phaedon cochleariae—Spray Test
as §1
Chinese cabbage (Brassica pekinensis) leaf disks are sprayed with a preparation of the active ingredient of the desired concentration. Once dry, the leaf disks are infested with mustard beetle larvae (Phaedon cochleariae).
After 7 days mortality in % is determined. 100% means all beetle larvae have been killed and 0% means none of the beetle larvae have been killed.

Nilaparvata lugens = Nilaparvata lugens - spray test 1; conditions: in Oryza sativa, 96 h, read-out: mortality in %, 500 g/ha, rice plants, after 4 days
Procedure: Nilaparvata lugens—Spray Test 1
as §1
Rice plants (Oryza sativa) are sprayed with a preparation of the active ingredient of the desired concentration and the plants are infested with the brown planthopper (Nilaparvata lugens).
After 4 days mortality in % is determined. 100% means all planthoppers have been killed and 0% means none of the planthoppers have been killed.

Myzus persicae = Myzus persicae - oral test; conditions: 120 h, read-out: mortality in %
Procedure: To produce a suitable preparation of active compound, 1 part by weight of active compound is mixed with the stated amount of solvent, and the concentrate is diluted with water to the desired concentration. 50 μl compound solution is filled in microtiter plates and 150 μl IPL41 insect medium (33%+15% sugar) is added to obtain a total volume of 200 μl per well. Afterwards the plates are sealed with parafilm through which a mixed population of the green peach aphid (Myzus persicae) can suck on the compound preparation.
(§2) After 5 days mortality in % is determined. 100% means all aphids have been killed and 0% means none of the aphids have been killed.

Aphis gossypii = Aphis gossypii - oral test; conditions: 120 h, read-out: mortality in %
Procedure: Solvent: 100 parts by weight acetone
To produce a suitable preparation of active compound, 1 part by weight of active compound is mixed with the stated amount of solvent, and the concentrate is diluted with water to the desired concentration.
50 μl compound solution is filled in microtiter plates and 150 μl IPL41 insect medium (33%+15% sugar) is added to obtain a total volume of 200 μl per well. Afterwards the plates are sealed with parafilm through which a mixed population of the cotton aphid (Aphis gossypii) can suck on the compound preparation.
as §2

Diabrotica balteata = Diabrotica balteata - spray test; conditions: 168 h, 160 μg/well, germinated wheat seeds, larvae, after 7 days, read-out: efficacy in %
Procedure: Diabrotica balteata—Spray Test
as §1, with “solvent,” for “solvents”, “and the concentrate” for “and”
Soaked wheat seeds (Triticum aestivum) are placed in a multiple well plate filled with agar and some water and are incubated for 1 day to germinate (5 seeds per well). The germinated wheat seeds are sprayed with a test solution containing the desired concentration of the active ingredient. Afterwards each unit is infected with 10-20 larvae of the banded cucumber beetle (Diabrotica balteata).
After 7 days efficacy in % is determined. 100% means all the seedlings have grown up like in the untreated, uninfected control; 0% means none of the seedlings have grown.

Nezara viridula = Nezara viridula - spray test 1; conditions: in Hordeum vulgare, 96 h, read-out: mortality in %
Procedure: Nezara viridula—Spray Test 1
as §1, with “solvent,” for “solvents”, “and the concentrate” for “and”
Barley plants (Hordeum vulgare) infested with larvae of the southern green stink bug (Nezara viridula) are sprayed with a test solution containing the desired concentration of the active ingredient.
After 4 days mortality in % is determined. 100% means all the stink bugs have been killed; 0% means none of the stink bugs have been killed.

Compound | mortality at 500 g/ha (Spodoptera frugiperda) | mortality at 500 g/ha (Phaedon cochleariae) | mortality at 500 g/ha (Nilaparvata lugens) | mortality at 20 ppm (Myzus persicae) | mortality at 100 ppm (Aphis gossypii) | pest or weed control at 160 µg/disc, 160 µg/well (Diabrotica balteata) | mortality at 500 g/ha (Nezara viridula)
CC(c1ncnn1-c1ncccn1)N(CCC(F)(F)F)C(=O)c1cc(Cl)cc(C(F)(F)F)c1 (stereo not shown) [Compound I-26, 3-chloro-N-[1-(2-pyrimidin-2-yl-1,2,4-triazol-3-yl)ethyl]-5-(trifluoromethyl)-N-(3,3,3-trifluoropropyl)benzamide] | 100% | 100% | 90% | 100% | 100% | 100% | 
CC(c1ncnn1-c1ncccn1)N(CC1CC1)C(=O)c1cncc(C(F)(F)F)c1 (stereo not shown) [Compound I-28, N-(cyclopropylmethyl)-N-[1-(2-pyrimidin-2-yl-1,2,4-triazol-3-yl)ethyl]-5-(trifluoromethyl)pyridine-3-carboxamide] |  | 100% | 100% | 100% | 100% | 100% | 100%
CC(c1ncnn1-c1ncccn1)N(CC1CC1)C(=O)c1cc(C#N)cc(C(F)(F)F)c1 (stereo not shown) [Compound I-50, 3-cyano-N-(cyclopropylmethyl)-N-[1-(2-pyrimidin-2-yl-1,2,4-triazol-3-yl)ethyl]-5-(trifluoromethyl)benzamide] | 100% | 100% |  | 100% | 100% | 100% | 100%
CC(NC(=O)c1cccc(C#N)c1)c1ncnn1-c1ncccn1 (stereo not shown) [Compound I-52] |  | 100% | 100% | 90% | 100% |  | 100%
CC(c1ncnn1-c1ccc(Cl)cn1)N(CC1CC1)C(=O)c1cc(Cl)cc(C(F)(F)F)c1 (stereo not shown) [Compound I-84, 3-chloro-N-[1-[2-(5-chloro-2-pyridyl)-1,2,4-triazol-3-yl]ethyl]-N-(cyclopropylmethyl)-5-(trifluoromethyl)benzamide] | 100% | 100% |  | 100% |  | 100% | 100%
CC(c1ncnn1-c1cccnc1)N(CC1CC1)C(=O)c1cc(Cl)cc(C(F)(F)F)c1 (stereo not shown) [Compound I-85] |  |  |  | 100% | 100% | 100% | 
CC(c1ncnn1-c1cccc(Cl)n1)N(CC1CC1)C(=O)c1cc(Cl)cc(C(F)(F)F)c1 (stereo not shown) [Compound I-87] |  |  |  |  |  | 100% | 
CC(c1ncnn1-c1ncccn1)N(CC1CC1)C(=O)c1cncc(SC(F)(F)F)c1 (stereo not shown) [Compound I-90] |  | 100% |  | 100% | 100% |  | 
CC(c1ncnn1-c1ncc(Br)cn1)N(CC1CC1)C(=O)c1cc(Cl)cc(C(F)(F)F)c1 (stereo not shown) [Compound I-92, N-[1-[2-(5-bromopyrimidin-2-yl)-1,2,4-triazol-3-yl]ethyl]-3-chloro-N-(cyclopropylmethyl)-5-(trifluoromethyl)benzamide] | 100% | 100% |  | 100% | 100% | 100% | 
CC(c1ncnn1-c1ccncc1)N(CC1CC1)C(=O)c1cc(Cl)cc(C(F)(F)F)c1 (stereo not shown) [Compound I-94] |  |  |  | 100% | 100% | 100% | 
CC(c1ncnn1-c1ncccn1)N(CC1CCC1)C(=O)c1cc(Cl)cc(C(F)(F)F)c1 (stereo not shown) [Compound I-101] | 100% |  |  | 100% | 100% | 100% | 
CC(c1ncnn1-c1ccnc(Cl)c1)N(CC1CC1)C(=O)c1cc(Cl)cc(C(F)(F)F)c1 (stereo not shown) [Compound I-102] |  |  |  |  |  | 100% | 
CC(c1ncnn1-c1cccnn1)N(CC1CC1)C(=O)c1cc(Cl)cc(C(F)(F)F)c1 (stereo not shown) [Compound I-103] |  | 100% |  | 90% | 100% | 100% | 
CC(c1ncnn1-c1ncccn1)N(CC1CC1)C(=O)c1ccc(Cl)c(Cl)c1 (stereo not shown) [Compound I-104] |  | 100% |  | 100% | 90% | 100% | 100%
CC(c1ncnn1-c1ccc(Cl)nc1)N(CC1CC1)C(=O)c1cc(Cl)cc(C(F)(F)F)c1 (stereo not shown) [Compound I-105] |  | 100% |  |  |  | 100% | 
CC(c1ncnn1-c1ncccn1)N(CC1COC1)C(=O)c1cc(Cl)cc(C(F)(F)F)c1 (stereo not shown) [Compound I-118] | 100% | 83% |  | 100% |  | 100% | 
C[C@H](NC(=O)c1cc(F)cc(C#N)c1)c1ncnn1-c1ncccn1 [Compound I-128] |  |  |  |  |  | 100% | 100%
C[C@H](NC(=O)c1cc(Cl)cc(C(F)(F)F)c1)c1ncnn1-c1ccc(Br)cn1 [Compound I-129, N-[(1S)-1-[2-(5-bromo-2-pyridyl)-1,2,4-triazol-3-yl]ethyl]-3-chloro-5-(trifluoromethyl)benzamide] | 100% |  |  |  |  | 100% | 100%
CC(NC(=O)c1cc(Cl)cc(Cl)c1)c1ncnn1-c1ncc(Br)cn1 (stereo not shown) [Compound I-130] | 100% |  |  |  |  | 100% | 
C[C@H](NC(=O)c1cc(Cl)cc(C(F)(F)F)c1)c1nc(C(F)(F)F)nn1-c1ccc(Cl)cn1 [Compound I-131, 3-chloro-N-{(1S)-1-[1-(5-chloropyridin-2-yl)-3-(trifluoromethyl)-1H-1,2,4-triazol-5-yl]ethyl}-5-(trifluoromethyl)benzamide] | 100% |  | 100% |  |  | 80% | 100%
C[C@H](NC(=O)c1cc(Cl)cc(C(F)(F)F)c1)c1ncnn1-c1ccc(I)cn1 [Compound I-132, 3-chloro-N-[(1S)-1-[2-(5-iodo-2-pyridyl)-1,2,4-triazol-3-yl]ethyl]-5-(trifluoromethyl)benzamide] | 100% |  |  |  |  | 100% | 100%
C[C@H](NC(=O)c1cc(F)c(Cl)c(F)c1)c1ncnn1-c1ncccn1 [Compound I-133] |  |  |  |  |  | 100% | 
C[C@H](NC(=O)c1cncc(C(F)(F)F)c1)c1nc(C(F)(F)F)nn1-c1ccc(Cl)cn1 [Compound I-135] | 100% |  |  |  |  | 100% | 
C[C@H](NC(=O)c1cc(C(F)(F)F)cc(C(F)(F)F)c1)c1nc(C(F)(F)F)nn1-c1ccc(Cl)cn1 [Compound I-136, N-[(1S)-1-[2-(5-chloro-2-pyridyl)-5-(trifluoromethyl)-1,2,4-triazol-3-yl]ethyl]-3,5-bis(trifluoromethyl)benzamide] | 100% |  |  |  |  | 100% | 
C[C@H](NC(=O)c1cc(Cl)cc(Br)c1)c1ncnn1-c1ccc(Cl)cn1 [Compound I-137, 3-bromo-5-chloro-N-[(1S)-1-[2-(5-chloro-2-pyridyl)-1,2,4-triazol-3-yl]ethyl]benzamide] | 100% |  |  |  |  | 100% | 100%
